Experimental data: patent US6489307B1, “Antisense compositions targeted to β1-adrenoceptor-specific mRNA and methods of use” (University of Florida, priority 1998, dated 2002)
“And” between values parts separate entries of the source, which are not always exact repeats. Identical values can stand only once.

Legend:
Total (β1+β2) β-ARs = assay: β-AR binding assay (ICYP saturation) on heart ventricle membranes after i.v. injection; type: in vivo, rat (SHR); conditions: cardiac ventricles of SHRs 4 days after treatment (1 mg/kg i.v.)
Procedure: (§1) Four days after intravenous injection of saline (n=6) or 1 mg/kg inverted ODN (n=6) or 2, 4, 10 or 18 days after injection of 1 mg/kg β1-AS-ODN (n=24), animals were euthanized, and membranes were prepared from heart ventricles as previously described (Baker and Pitha, 1982). For saturation experiments, 100 μg membrane protein was incubated in triplicate with 6 concentrations of [^125I](^−)-iodocyanopindolol (ICYP, NEN Life Science, 6.25 to 100 pmol/L) in a total volume of 250 μL containing 50 mmol/L Tris-HCl (pH 7.4), 5 mmol/L MgCl2 at 36° C. for 60 minutes. The nonspecific and β2-AR-binding levels were determined in the presence of 1 μmol/L (±)-alprenolol and 150 nmol/L CGP20712A (RBI), respectively. Then the reaction mixture was passed through Whatman (GF/B glass fiber filter using a Brandel harvester, and the bound radioactivity was counted for 1 min.
(§2) Four days after intravenous injection of saline (n=6) or 1 mg/kg inverted ODN (n=6), or 2, 4, 10, 18 days after injection of 1 mg/kg β1-AS-ODN (n=24), animals were sacrificed and membranes were prepared from heart ventricles as previously described (Baker and Pitha, 1982). For saturation studies, 100 μg membrane protein was incubated in triplicate with six concentrations of ^125I-(−)iodocyanopindolol (I-CYP, NEN Life Science, 6.25-100 pM) in a total volume of 250 μl containing 50 mM Tris-HCl (pH 7.4), 5 mM MgCl2 at 36° C. for 60 min. The nonspecific and β2-adrenoceptor binding levels were determined in the presence of 1 μM (±)-alprenolol and 150 nM CGP20712A (RBI), respectively. Then the reaction mixture was passed through Whatman GF/B glass fiber filter using Brandel harvester and the bound radioactivity was counted for one min.

β1-ARs = target: T1, β1-ARs (Rattus norvegicus, UniProt P18090); assay: as above; type: in vivo, rat (SHR); conditions: for Bmax, β1: cardiac ventricles of SHRs 4 days after treatment (1 mg/kg i.v.)
T1 construct: membranes were prepared from heart ventricles as previously described; from tissue; host or cells: heart ventricles of SHR
Procedure: as §1, §2

β2-ARs = target: T2, β2-ARs (Rattus norvegicus, UniProt P10608); assay: as above; type: in vivo, rat (SHR); conditions: for Bmax, β2: cardiac ventricles of SHRs 4 days after treatment (1 mg/kg i.v.)
T2 construct: membranes were prepared from heart ventricles as previously described; from tissue; host or cells: heart ventricles of SHR
Procedure: as §1, §2

SHRs = assay: Blood pressure of SHRs by tail cuff; type: in vivo, rat (SHR); conditions: for reduction of blood pressure throughout the treatment period: repeated treatment for more than 2 months; for Duration (Range) / Range of Reduction / Maximum Reduction in Blood Pressure: single i.v. 0.5 mg/kg
Procedure: (§3) Rats were warmed for 20 to min. in cages on heating pads. The temperature was controlled at 35° C. to 37° C. Then the rats were placed in a plastic restrainer kept at 37° C. A pneumatic pulse sensor was attached to the tail. After cuff inflation, SBP was determined as the first pulsatile oscillation on the descending side of the pressure curve. HR was determined by manual counting of pulse numbers per unit time. BP and HR were recorded by a Narco physiograph. Data values of each rat were taken as an average of at least 4 stable readings. Baseline was determined by averaging 3 days of measurements before antisense administration.
Blood pressure was measured by the tail-cuff method as described above. Systolic blood pressure (SBP) was determined as the first pulsatile oscillation on the descending side of the pressure curve. Data values of each rat were taken as an average of ≧4 stable readings. Baseline was determined by averaging 3 days of measurements before antisense administration.
as §3, with “for 20-30 min” for “for 20 to min.”, “at 35-37°” for “at 35° C. to 37°”, “Then” for “Then the”, “of” for “of the”, “least four” for “least 4”, “averaging three” for “averaging 3”

β1-AR [1] = assay: β-adrenergic receptor binding assay on renal cortex membranes; type: in vivo, rat (SHR); conditions: for decrease in Bmax of β1-ARs in renal cortex: charge ratio 2
Procedure: Four days after intravenous injection of saline (n=6) or 0.5 mg/kg inverted ODN (n=6) or 4, 10, 18 and 40 days after injection of 0.5 mg/kg β1-AS-ODN (n=24), animals were euthanized, and membranes were prepared from the renal cortex of the left kidneys as previously described (Baker and Pitha, 1982). For saturation studies, 100 μg membrane protein was incubated in triplicate with 6 concentrations of [^125](−)iodocyanopindolol (ICYP, NEN Life Science, 6.25 to 100 pmol/L) in a total volume of 250 μL containing 50 mmol/L Tris-HCl (pH 7.4) and 5 mmol/L MgCl2 at 36° C. for 60 min. The nonspecific and β2-adrenergic receptor binding levels were determined in the presence of 1 μmol/L (±)-alprenolol and […] CGP20712A (RBI), respectively. Then the reaction mixture was passed through a Whatman GF/B glass fiber filter with a Brandel harvester, and the bound radioactivity was counted for 1 min.

β1-AR [2] = assay: β-AR density in myocardium after ischemia-reperfusion (binding assay); type: in vivo, Sprague-Dawley rats
Procedure: Membrane protein was prepared from left ventricles as previously described (Baker and Pitha, 1982). For saturation studies, 100 μg membrane protein was incubated in triplicate with ^125I-(−)iodocyanopindolol (I-CYP, NEN Life Science, 6.25-100 pM) in a total volume of 250 μl containing 50 mM Tris-HCl (pH 7.4), 5 mM MgCl2 at 36° C. for 60 min. The nonspecific and β2-adrenoceptor binding were determined in the presence of 1 μM (±)-alprenolol and […] (RBI), respectively. Then the reaction mixture was passed through Whatman GF/B glass filter using Brandel harvester and the radioactivity was counted for one min.

[3] = 0.5 mg/kg i.v., charge ratio 1.5
[4] = 0.5 mg/kg i.v., charge ratio 2.5
[5] = 0.5 mg/kg i.v., charge ratio 3.5
[6] = single 1 mg/kg, liposomes DNA/lipid 1:0.5

T1 sequence (P18090 whole entry): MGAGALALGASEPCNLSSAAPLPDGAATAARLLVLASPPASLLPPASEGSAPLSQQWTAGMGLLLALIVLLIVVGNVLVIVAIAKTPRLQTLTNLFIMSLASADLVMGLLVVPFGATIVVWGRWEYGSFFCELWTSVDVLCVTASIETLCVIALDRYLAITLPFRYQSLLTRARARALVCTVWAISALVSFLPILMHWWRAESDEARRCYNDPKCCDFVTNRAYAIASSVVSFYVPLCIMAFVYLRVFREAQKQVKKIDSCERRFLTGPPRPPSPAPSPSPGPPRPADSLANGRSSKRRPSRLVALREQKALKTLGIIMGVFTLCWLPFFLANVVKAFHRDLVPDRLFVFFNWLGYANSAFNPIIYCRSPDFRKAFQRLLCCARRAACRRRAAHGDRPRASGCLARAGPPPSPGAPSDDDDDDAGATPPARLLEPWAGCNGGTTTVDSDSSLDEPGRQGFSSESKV
T2 sequence (P10608 whole entry): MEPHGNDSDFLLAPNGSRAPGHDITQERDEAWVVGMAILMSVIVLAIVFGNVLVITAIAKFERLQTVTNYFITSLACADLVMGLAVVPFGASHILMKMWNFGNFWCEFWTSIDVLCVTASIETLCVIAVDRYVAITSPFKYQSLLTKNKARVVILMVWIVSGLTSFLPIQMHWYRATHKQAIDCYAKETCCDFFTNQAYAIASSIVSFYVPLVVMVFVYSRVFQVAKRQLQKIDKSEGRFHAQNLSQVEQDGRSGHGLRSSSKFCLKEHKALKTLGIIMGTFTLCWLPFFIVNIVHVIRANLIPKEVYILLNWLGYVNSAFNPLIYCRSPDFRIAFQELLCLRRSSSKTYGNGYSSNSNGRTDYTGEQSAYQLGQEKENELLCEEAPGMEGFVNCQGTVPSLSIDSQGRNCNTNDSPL

5′-CCGCGCCCATGCCGA-3′ (phosphorothioate backbone, further chemistry not given here) [β1-AS-ODN, 15-mer antisense ODN targeted to the AUG start codon of rat β1-AR mRNA]
Bmax, Total (β1+β2) (Total (β1+β2) β-ARs): 19.8 ± 1.8 fmol/mg | β1/β2 subtype ratio in the ventricles (β1-ARs; after treatment, from ≈70/30): ≈ 50/50 and 50/50 | Bmax, β1 (β1-ARs): 10.0 ± 1.2 fmol/mg | duration of significant reduction of β1-AR density in SHR hearts (β1-ARs; single i.v. 1 mg/kg with cationic liposomes 1:2.5): 18 days | drop in cardiac β1-AR density (β1-ARs; single i.v. 1 mg/kg with cationic liposomes 1:2.5, day 10): 33% | drop in cardiac β1-AR density (β1-ARs; single i.v. 1 mg/kg with cationic liposomes 1:2.5, day 18): 29% | change in Bmax of β2-ARs (β2-ARs; SHR hearts, single i.v. 1 mg/kg): no significant change | Bmax, β2 (β2-ARs): 9.9 ± 0.5 fmol/mg | duration of SBP reduction (SHRs; 0.5 mg/kg i.v., charge ratio 0.5): 7 to 8 days | reduction of SBP (SHRs; 0.5 mg/kg i.v., charge ratio 0.5, representative experiment): up to 33 mm Hg | duration of the hypotensive impact (SHRs; [3]): 20 days | maximum drop in SBP (SHRs; [3]): ≈ 35 mm Hg | duration of the hypotensive impact (SHRs; [4]): 33 days | maximum drop in SBP (SHRs; [4]): ≈ 35 mm Hg | duration of the hypotensive impact (SHRs; [5]): 33 days | maximum drop in SBP (SHRs; [5]): ≈ 25 mm Hg | effect on SBP (SHRs; 0.5 mg/kg i.v., β1-AS-ODN alone (ratio 0)): did not change SBP | reduction of blood pressure throughout the treatment period (SHRs): 20-30 mmHg | duration of diminished SBP (SHRs; [6]): 8 days | maximum drop in SBP (SHRs; [6]): 38±5 mm Hg | Duration (Range) (SHRs; charge ratio 0.5): 7 to 8 days | Range of Reduction (SHRs; charge ratio 0.5): 24-38 mm Hg | Duration (Range) (SHRs; charge ratio 1.5): 18 to 20 days | Range of Reduction (SHRs; charge ratio 1.5): 18-35 mm Hg | Duration (Range) (SHRs; charge ratio 2.5): 20 to 33 days | Range of Reduction (SHRs; charge ratio 2.5): 20-34 mm Hg | Duration (Range) (SHRs; charge ratio 3.5): 20 to 33 days | Range of Reduction (SHRs; charge ratio 3.5): 15-24 mm Hg | Maximum Reduction in Blood Pressure (SHRs; charge ratio liposome/ODN 0): 2 mm Hg | Maximum Reduction in Blood Pressure (SHRs; charge ratio liposome/ODN 0.5): 35-38 mm Hg | Maximum Reduction in Blood Pressure (SHRs; charge ratio liposome/ODN 1.5): 28-35 mm Hg | Maximum Reduction in Blood Pressure (SHRs; charge ratio liposome/ODN 2.5): 30-34 mm Hg | Maximum Reduction in Blood Pressure (SHRs; charge ratio liposome/ODN 3.5): 20-24 mm Hg | hypotensive effect (SHRs; single i.v. injection with cationic liposomes, summary): 30 to 35 mm Hg | affinity of either subtype in renal cortex (β1-AR [1]; 0.5 mg/kg i.v.): not affected | decrease in Bmax of β1-ARs in renal cortex (β1-AR [1]; 0.5 mg/kg i.v., day 4): 35% | decrease in Bmax of β1-ARs in renal cortex (β1-AR [1]; 0.5 mg/kg i.v., day 10): 29% | decrease in Bmax of β1-ARs in renal cortex (β1-AR [1]; 0.5 mg/kg i.v., day 18): 23% | Bmax of β1-ARs in renal cortex (β1-AR [1]; 0.5 mg/kg i.v., day 40): completely restored | duration of reduction of β1-AR levels in renal cortex (β1-AR [1]; summary statement): 18 days | reduction of β1-AR levels in renal cortex (β1-AR [1]; summary statement): ≈ 30% | β1-AR density (Bmax) in ischemic-reperfused myocardium (β1-AR [2]; vs 28.7±5.4 in saline-treated rat hearts): 15.9 ± 1.3 fmol/mg

5′-AGCCGTACCCGCGCC-3′ (phosphorothioate backbone, further chemistry not given here) [Inverted ODN, 15-mer inverted ODN control, reference compound]
Bmax, Total (β1+β2) (Total (β1+β2) β-ARs): 26.3 ± 3.0 fmol/mg | effect on either β-AR subtype (β1-ARs; SHR cardiac ventricles, 1 mg/kg i.v., 4 days): no effect | Bmax, β1 (β1-ARs): 18.1 ± 2.3 fmol/mg | Bmax, β2 (β2-ARs): 8.7 ± 0.5 fmol/mg | effect on SBP (SHRs; 1 mg/kg with liposomes): No effect | reduction of blood pressure throughout the treatment period (SHRs): no change | effect on either β-AR subtype in renal cortex (β1-AR [1]; 0.5 mg/kg i.v., 4 days): no effect | effect on β1-AR density in ischemic-reperfused myocardium (β1-AR [2]; rat, in vivo): no effect
